Publication PMC3177832, “Structure-Based Development of Small Molecule PFKFB3 Inhibitors: A Framework for Potential Cancer Therapeutic Agents Targeting the Warburg Effect” (PLoS ONE, 2011)
“Also recorded” adds a separate entry of the source.

Assays:
human PFKFB3 = target: T1, human PFKFB3 (Homo sapiens, UniProt Q16875); test: 2-Kase assay and kinetic analysis (enzyme-coupled); format: biochemical; settings: for Inhibition (type): Lineweaver-Burk analysis; for IC50: PFKFB3 2-Kase activity; for Ki: steady state inhibition against Fru-6-P; for PFKFB3 inhibition at twice the IC50: twice the IC50 for PFKFB3 (N4A = 6 µM, YN1 = 1.3 µM)
T1 construct: The structure contains a total of 443 amino acid residues of the full-length protein of 520 residues; 6xHis; made in house; host or cells: Escherichia coli BL21(DE3) pLysS
T1 sequence (Q16875 whole entry): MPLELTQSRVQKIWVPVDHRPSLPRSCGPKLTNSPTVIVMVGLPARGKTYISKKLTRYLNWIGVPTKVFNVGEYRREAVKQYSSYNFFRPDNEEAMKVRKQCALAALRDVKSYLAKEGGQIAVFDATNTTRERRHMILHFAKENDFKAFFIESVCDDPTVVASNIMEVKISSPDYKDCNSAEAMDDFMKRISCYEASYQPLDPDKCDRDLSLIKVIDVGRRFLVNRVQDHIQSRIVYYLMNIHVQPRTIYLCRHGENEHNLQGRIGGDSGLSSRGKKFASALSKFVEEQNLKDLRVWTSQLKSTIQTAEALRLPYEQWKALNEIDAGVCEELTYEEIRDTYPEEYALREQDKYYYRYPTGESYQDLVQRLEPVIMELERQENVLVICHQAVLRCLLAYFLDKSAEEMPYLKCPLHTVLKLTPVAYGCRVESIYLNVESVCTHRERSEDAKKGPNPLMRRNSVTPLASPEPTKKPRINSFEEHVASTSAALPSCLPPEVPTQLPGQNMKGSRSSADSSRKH
Experimental: To determine steady-state initial reaction rates, the 2-Kase reactions were performed first and the Fru-2,6-BP produced was measured by a conventional enzyme-coupled kinetics assay as described previously, [36]. Initial rates of decrease in absorbance (Abs) at 340 nm were corrected with the rate of the control reaction in which no Fru-2,6-BP was present. Negative controls were carried out in the absence of enzyme and positive controls indicate the reaction in the presence of enzyme without inhibitor compounds. […] IC50 values were determined in quadruplicate. For the kinetic studies, concentrations of one of substrate and inhibitor were varied and decrease in absorbance at 340 nm was measured. The inhibition patterns were analyzed using the program written by Cleland, in which Ki is the dissociation constants for the inhibitor from enzyme-inhibitor complex. For Selectivity studies, the 2-Kase assays were performed first and the F-2,6-P2 produced was measured by an enzyme coupled kinetics assay as described above. The His6-tagged PFKFB isoforms, PFKFB1, PFKFB2, and PFKFB4 were expressed in Escherichia coli C41(DE3) and purified using Ni-NTA affinity columns.

HeLa cells [1] = test: Lactate secretion (lactate oxidase-based assay kit); format: cell-based, human; settings: 25 µM
Experimental: (§1) HeLa cells were plated at a density of 2.5×10^5 in a 6-well plate in DMEM containing 10% FCS. The media were replaced with fresh DMEM containing either vehicle (dimethyl sulfoxide) or 25 µM of inhibitor the following day. After 0, 4, 8, 12, 24, or 48 hours of incubation with each inhibitor, media samples were collected for measuring the lactate secretion levels using a lactate oxidase-based assay kit (Sigma-Aldrich) and the lactate concentration was normalized to the total cellular protein concentration. The Fru-2,6-BP level was determined with collected cells at times of 0, 4,8,12,24, or 48 hours after the treatment, using the method described previously.

PFKFB1 = target: T2, PFKFB1 (Homo sapiens, UniProt P16118); test: 2-Kase assay, isoform selectivity; format: biochemical; settings: N4A = 6 µM, YN1 = 1.3 µM
T2 construct: His6; made in house; host or cells: Escherichia coli C41(DE3)
T2 sequence (P16118 whole entry, canonical isoform): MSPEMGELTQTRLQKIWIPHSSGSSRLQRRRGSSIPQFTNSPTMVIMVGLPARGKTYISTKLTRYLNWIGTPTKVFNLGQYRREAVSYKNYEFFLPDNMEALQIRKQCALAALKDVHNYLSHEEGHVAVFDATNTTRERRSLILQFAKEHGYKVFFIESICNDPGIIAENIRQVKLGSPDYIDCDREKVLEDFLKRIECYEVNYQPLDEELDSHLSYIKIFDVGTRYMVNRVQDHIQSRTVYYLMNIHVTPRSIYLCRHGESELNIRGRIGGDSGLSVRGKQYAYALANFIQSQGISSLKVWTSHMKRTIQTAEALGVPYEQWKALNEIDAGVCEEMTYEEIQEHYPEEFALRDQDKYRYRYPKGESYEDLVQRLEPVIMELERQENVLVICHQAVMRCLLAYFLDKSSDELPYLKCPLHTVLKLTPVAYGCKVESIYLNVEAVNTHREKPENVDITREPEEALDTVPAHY
Experimental: (§2) To determine steady-state initial reaction rates, the 2-Kase reactions were performed first and the Fru-2,6-BP produced was measured by a conventional enzyme-coupled kinetics assay as described previously, [36]. Initial rates of decrease in absorbance (Abs) at 340 nm were corrected with the rate of the control reaction in which no Fru-2,6-BP was present. Negative controls were carried out in the absence of enzyme and positive controls indicate the reaction in the presence of enzyme without inhibitor compounds. The percentage of Inhibitory activity was calculated according to the formula: % inhibition = 100×[1−(Absnegativecontrol−Abscompound)/(Absnegativecontrol−Abspositivecontrol)]. IC50 values were determined in quadruplicate. For the kinetic studies, concentrations of one of substrate and inhibitor were varied and decrease in absorbance at 340 nm was measured. The inhibition patterns were analyzed using the program written by Cleland, in which Ki is the dissociation constants for the inhibitor from enzyme-inhibitor complex. For Selectivity studies, the 2-Kase assays were performed first and the F-2,6-P2 produced was measured by an enzyme coupled kinetics assay as described above. The His6-tagged PFKFB isoforms, PFKFB1, PFKFB2, and PFKFB4 were expressed in Escherichia coli C41(DE3) and purified using Ni-NTA affinity columns.

PFKFB4 = target: T3, PFKFB4 (Homo sapiens, UniProt Q16877); test: 2-Kase assay, isoform selectivity; format: biochemical; settings: N4A = 6 µM, YN1 = 1.3 µM
T3 construct: His6; made in house; host or cells: Escherichia coli C41(DE3)
T3 sequence (Q16877 whole entry, canonical isoform): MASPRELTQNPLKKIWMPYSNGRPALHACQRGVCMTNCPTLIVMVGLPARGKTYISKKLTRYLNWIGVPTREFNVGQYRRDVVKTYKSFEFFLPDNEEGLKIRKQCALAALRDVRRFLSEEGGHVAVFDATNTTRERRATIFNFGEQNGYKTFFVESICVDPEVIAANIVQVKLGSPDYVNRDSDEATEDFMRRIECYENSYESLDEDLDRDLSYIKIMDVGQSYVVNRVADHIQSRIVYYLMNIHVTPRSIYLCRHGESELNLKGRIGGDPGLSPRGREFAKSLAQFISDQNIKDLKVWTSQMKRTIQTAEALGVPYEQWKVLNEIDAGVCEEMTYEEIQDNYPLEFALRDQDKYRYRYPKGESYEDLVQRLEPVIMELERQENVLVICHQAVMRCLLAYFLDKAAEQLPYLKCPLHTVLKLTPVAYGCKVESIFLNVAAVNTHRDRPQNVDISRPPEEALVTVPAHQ
Experimental: as §2

PFKFB2 = target: T4, PFKFB2 (Homo sapiens, UniProt O60825); test: 2-Kase assay, isoform selectivity; format: biochemical; settings: N4A = 6 µM, YN1 = 1.3 µM
T4 construct: His6; made in house; host or cells: Escherichia coli C41(DE3)
T4 sequence (O60825 whole entry, canonical isoform): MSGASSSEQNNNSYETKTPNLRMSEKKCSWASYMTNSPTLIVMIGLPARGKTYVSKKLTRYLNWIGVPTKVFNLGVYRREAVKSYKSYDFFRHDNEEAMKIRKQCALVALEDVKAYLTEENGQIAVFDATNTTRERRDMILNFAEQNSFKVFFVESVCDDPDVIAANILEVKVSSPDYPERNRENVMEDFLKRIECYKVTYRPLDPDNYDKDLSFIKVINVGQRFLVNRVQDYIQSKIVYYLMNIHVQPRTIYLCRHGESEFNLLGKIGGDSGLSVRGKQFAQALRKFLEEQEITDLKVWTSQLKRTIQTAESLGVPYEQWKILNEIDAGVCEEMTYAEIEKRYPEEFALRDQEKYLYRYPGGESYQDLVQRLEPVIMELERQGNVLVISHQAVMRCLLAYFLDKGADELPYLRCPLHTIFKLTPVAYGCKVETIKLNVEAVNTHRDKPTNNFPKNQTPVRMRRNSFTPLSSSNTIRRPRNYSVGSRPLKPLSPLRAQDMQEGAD
Experimental: as §2

HeLa and T47D cells = test: Cell growth inhibition (XTT assay or trypan blue counting); format: cell-based, human; settings: for Reduction in cell proliferation: 25 µM, human adenocarcinoma cells, compared to unexposed cells; for GI50: Homo sapiens, 36 hours incubation, inhibitor concentration for 50% of vehicle-treated cell growth
Experimental: (§3) Cell growth inhibition was determined by an XTT-based in-vitro toxicology assay (Sigma-Aldrich) or trypan blue staining. Cells were plated at a density of 3.5×10^4 per well in a 24-well plate in DMEM containing 10% FCS. These cells were allowed to attach for 24 hours, and the media were replaced with fresh media containing either vehicle (dimethyl sulfoxide) or appropriate concentrations of test compounds. After 36 hours of incubation with either vehicle or compounds, cells were trypsinized and cell viability was determined by the trypan blue exclusion assay using a hemacytometer. For the XTT assay, cells were seeded into 96-well cell culture plates at a density of 0.6×10^4 per well. After the appropriate treatment described above, cells were incubated with 0.1 mg/ml of 2,3-bis(2-methoxy-4-nitro-5-sulfophenyl)-5-[(phenylamino)carbonyl]-2H-tetrazolium hydroxide (XTT) for 4 hours and then cell number was determined by the absorbance at 470 nm, which is proportional to the number of cells that remained attached to the plate. GI50s were calculated as the inhibitor concentration needed for 50% of vehicle-treated cell growth. The appearance of apoptotic or necrotic cells was determined by flow cytometric analysis of cells double stained with Annexin V-FITC and propidium iodide (PI). Apoptotic and necrotic cells were distinguished on the basis of double-labeling for Annexin V-FITC (Sigma-Aldrich) and PI, a membrane-impermeable DNA stain. Floating and freshly trypsinized cells were pooled, washed twice in binding buffer, and processed following manufacturer's instructions. The fluorescence of samples were analyzed by flow cytometry (FACSCalibur®, Becton Dickinson Immunocytometry, San Jose, CA) using the CellQuest (BD Bioscience, Immunocytometry Systems, San Jose, CA, USA) software.

HeLa cells [2] = test: Soft agar colony formation; format: cell-based, human; settings: 3 weeks; for Soft agar colony formation: HeLa cells, 25, 50 and 100 µM; for inhibition at 25 µM: Homo sapiens, 504 h, HeLa cells
Experimental: For HeLa cell colony formation was determined by soft agar assay. Cells ([…]) were mixed in DMEM medium containing 0.35% agarose and varying concentrations of N4A or YN1. Then the cell mixture was added on a layer of 0.6% concentration of bottom agar in 24 well plates and allowed to grow for three weeks at 37°Cunder 5% CO2. Fresh medium containing the inhibitors or vehicle (DMSO) was changed every four days. Colonies of 50 cells or more were counted after three weeks. The experiments were repeated at least five times.

HeLa cells [3] = test: Cellular Fru-2,6-BP level determination; format: cell-based, human; settings: 25 µM
Experimental: as §1

HeLa cells [4] = test: Flow cytometric analysis of cell death (Annexin V-FITC / PI); format: cell-based, human
Experimental: as §3

SMILES	Effect of Tween-20 on PFKFB3 inhibition (human PFKFB3; 10 µM compound, in the presence of 0.1% Tween-20)	inhibition at 10 µM (human PFKFB3; 10 µM compound, substrate-saturating conditions)	Inhibition (type) (human PFKFB3)	IC50 (human PFKFB3)	Ki (human PFKFB3)	PFKFB3 inhibition at twice the IC50 (human PFKFB3)	Decrease in lactate secretions (HeLa cells [1])	PFKFB1 inhibition at twice the IC50 for PFKFB3 (PFKFB1)	PFKFB4 inhibition at twice the IC50 for PFKFB3 (PFKFB4)	PFKFB2 inhibition at twice the IC50 for PFKFB3 (PFKFB2)	Reduction in cell proliferation (HeLa and T47D cells)	GI50 (HeLa and T47D cells)	Soft agar colony formation (HeLa cells [2])	inhibition at 25 µM (HeLa cells [2])	Reduction of Fru-2,6-BP level (HeLa cells [3]; 48-hour exposure)	Reduction of Fru-2,6-BP level (HeLa cells [3]; 8 hour exposure)	Type of cell death induced (HeLa cells [4]; 25 µM)	Type of cell death induced (HeLa cells [4]; 50 µM)	Type of cell death induced (HeLa cells [4]; Annexin V / PI)	Increase in PFKFB3 inhibition compared to N4A (human PFKFB3; relative to lead N4A)
O=c1cc(-c2ccc(O)cc2)oc2c(O)c(O)c(O)c(O)c12 [N4A, 5,6,7,8-tetrahydroxy-2-(4-hydroxyphenyl) chromen-4-one]	not affected	> 65%	competitive inhibitor against Fru-6-P; also recorded: Competitive to Fru-6-P	2970 ± 160 nM	1290 ± 260 nM	over 80%	greater than 30%	less than 50%	less than 50%	less than 50%	70%	14200 ± 1500 nM	significantly inhibited colony formation	64%	over 40%	approximately 20%	prone to apoptosis	death by necrosis was significantly increased	induced both apoptotic and necrotic cell death	–
O=c1c(-c2ccc(O)cc2)coc2c(O)c(O)ccc12 [YN1, 7,8-dihydroxy-3-(4-hydroxyphenyl) chromen-4-one]	–	–	Competitive to Fru-6-P	670 ± 80 nM	240 ± 30 nM	over 80%	greater than 30%	less than 40%	less than 40%	less than 40%	over 90%	8200 ± 800 nM	significantly inhibited colony formation	79%	over 40%	approximately 20%	prone to apoptosis	death by necrosis was significantly increased	induced both apoptotic and necrotic cell death	5 fold
CCOC(=O)c1cc2ccc(O)cc2oc1=O [YZ9, ethyl 7-hydroxy-2-oxochromene-3-carboxylate]	–	–	–	–	–	–	–	–	–	–	–	2700 ± 200 nM	–	–	–	–	–	–	–	–
